Activity calls are given as the source filed them.
Columns and labels:
Genome polyprotein = Genome polyprotein (dengue virus type 2, UniProt P29990); assay: flavivirus cap methylation enzyme inhibition – biochemical, confirmation dose response, primary screen (AID 588689); format: functional
[1] = target: Tyrosine-protein phosphatase non-receptor type 11 (Homo sapiens, UniProt Q06124); assay: PTPN11 enzyme inhibitors – biochemical, selectivity assay for STEP inhibitor project, dose response (AID 602367); format: functional; details: read-out: IC50_Mean
Tyrosine-protein phosphatase non-receptor type 11, sequence (Q06124 whole entry): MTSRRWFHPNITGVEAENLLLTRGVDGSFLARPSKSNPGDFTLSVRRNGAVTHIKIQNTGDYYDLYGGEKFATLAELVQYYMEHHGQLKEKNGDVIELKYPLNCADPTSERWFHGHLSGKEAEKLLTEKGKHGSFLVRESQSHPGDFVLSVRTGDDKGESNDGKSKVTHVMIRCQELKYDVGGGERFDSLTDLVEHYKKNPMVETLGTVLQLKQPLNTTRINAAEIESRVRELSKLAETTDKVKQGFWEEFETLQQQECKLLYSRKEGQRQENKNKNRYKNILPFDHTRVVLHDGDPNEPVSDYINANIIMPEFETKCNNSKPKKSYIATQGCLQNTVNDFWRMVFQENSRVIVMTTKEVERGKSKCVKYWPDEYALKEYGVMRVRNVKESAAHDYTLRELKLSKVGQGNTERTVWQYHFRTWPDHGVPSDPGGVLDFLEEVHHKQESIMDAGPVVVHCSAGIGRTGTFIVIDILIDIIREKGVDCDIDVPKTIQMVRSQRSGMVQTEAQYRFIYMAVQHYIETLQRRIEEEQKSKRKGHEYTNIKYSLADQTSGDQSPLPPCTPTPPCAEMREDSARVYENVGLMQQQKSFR

[2] = target: Tyrosine-protein phosphatase non-receptor type 5 (Homo sapiens, UniProt P54829); assay: PTPN5 enzyme inhibition – biochemical, fluorescence intensity, uHTS hits, confirmation (AID 602372); format: functional; details: read-out: IC50_Mean
Tyrosine-protein phosphatase non-receptor type 5, sequence (P54829 whole entry): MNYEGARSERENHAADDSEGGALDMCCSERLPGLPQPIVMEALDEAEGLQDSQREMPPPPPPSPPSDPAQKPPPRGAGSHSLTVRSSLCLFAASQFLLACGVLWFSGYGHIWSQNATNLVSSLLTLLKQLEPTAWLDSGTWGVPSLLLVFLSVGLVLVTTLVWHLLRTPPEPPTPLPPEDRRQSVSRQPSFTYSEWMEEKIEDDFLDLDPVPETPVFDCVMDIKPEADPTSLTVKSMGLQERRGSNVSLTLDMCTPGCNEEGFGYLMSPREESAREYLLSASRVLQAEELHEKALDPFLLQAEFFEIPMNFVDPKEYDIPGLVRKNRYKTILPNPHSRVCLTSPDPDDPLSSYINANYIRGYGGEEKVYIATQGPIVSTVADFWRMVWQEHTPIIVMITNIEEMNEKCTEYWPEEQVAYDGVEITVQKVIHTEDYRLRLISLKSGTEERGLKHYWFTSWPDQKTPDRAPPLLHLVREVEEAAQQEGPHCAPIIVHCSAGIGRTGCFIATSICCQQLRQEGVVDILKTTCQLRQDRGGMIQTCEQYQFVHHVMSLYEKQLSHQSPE

[3] = target: Dual specificity protein phosphatase 3 (Homo sapiens, UniProt P51452); assay: VHR phosphatase inhibition, dose response, selectivity assay for STEP inhibitor project, biochemical (AID 602374); format: functional; details: read-out: IC50_Mean
Dual specificity protein phosphatase 3, sequence (P51452 whole entry): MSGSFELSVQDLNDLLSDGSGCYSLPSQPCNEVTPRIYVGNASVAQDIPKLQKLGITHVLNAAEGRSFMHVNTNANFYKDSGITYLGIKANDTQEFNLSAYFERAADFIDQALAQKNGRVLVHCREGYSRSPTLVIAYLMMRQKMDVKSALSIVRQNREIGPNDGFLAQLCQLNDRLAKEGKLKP

[4] = target: T1, Long-chain-fatty-acid--AMP ligase FadD28 (Mycobacterium tuberculosis, UniProt P9WQ59); assay: Fluorescence polarization aasay to screen for inhibitors that compete for the binding of FadD28 to a bisubstrate Measured in Biochemical System Using Plate Reader - 2147-01_Inhibitor_Dose_CherryPick_Activity.; format: functional, Mycobacterium tuberculosis H37Rv
T1 sequence (P9WQ59 whole entry): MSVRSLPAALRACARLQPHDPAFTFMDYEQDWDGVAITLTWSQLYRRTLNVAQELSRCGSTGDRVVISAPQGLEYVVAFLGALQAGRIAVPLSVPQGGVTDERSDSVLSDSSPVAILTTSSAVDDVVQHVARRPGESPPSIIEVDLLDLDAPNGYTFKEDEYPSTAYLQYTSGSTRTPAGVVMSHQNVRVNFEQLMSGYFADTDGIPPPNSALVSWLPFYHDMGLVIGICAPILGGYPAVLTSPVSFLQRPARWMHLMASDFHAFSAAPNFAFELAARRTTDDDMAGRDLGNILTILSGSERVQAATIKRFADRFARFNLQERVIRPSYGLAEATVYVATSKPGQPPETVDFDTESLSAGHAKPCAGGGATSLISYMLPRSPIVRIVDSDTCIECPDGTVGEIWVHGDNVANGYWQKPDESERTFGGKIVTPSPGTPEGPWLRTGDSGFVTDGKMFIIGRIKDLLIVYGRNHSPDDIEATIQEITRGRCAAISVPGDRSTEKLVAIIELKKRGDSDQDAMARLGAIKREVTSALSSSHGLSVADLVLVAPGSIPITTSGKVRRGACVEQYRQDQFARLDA

[5] = target: T2, Histone-lysine N-methyltransferase NSD2 (Homo sapiens, UniProt O96028); format: biochemical
T2 sequence (O96028 whole entry): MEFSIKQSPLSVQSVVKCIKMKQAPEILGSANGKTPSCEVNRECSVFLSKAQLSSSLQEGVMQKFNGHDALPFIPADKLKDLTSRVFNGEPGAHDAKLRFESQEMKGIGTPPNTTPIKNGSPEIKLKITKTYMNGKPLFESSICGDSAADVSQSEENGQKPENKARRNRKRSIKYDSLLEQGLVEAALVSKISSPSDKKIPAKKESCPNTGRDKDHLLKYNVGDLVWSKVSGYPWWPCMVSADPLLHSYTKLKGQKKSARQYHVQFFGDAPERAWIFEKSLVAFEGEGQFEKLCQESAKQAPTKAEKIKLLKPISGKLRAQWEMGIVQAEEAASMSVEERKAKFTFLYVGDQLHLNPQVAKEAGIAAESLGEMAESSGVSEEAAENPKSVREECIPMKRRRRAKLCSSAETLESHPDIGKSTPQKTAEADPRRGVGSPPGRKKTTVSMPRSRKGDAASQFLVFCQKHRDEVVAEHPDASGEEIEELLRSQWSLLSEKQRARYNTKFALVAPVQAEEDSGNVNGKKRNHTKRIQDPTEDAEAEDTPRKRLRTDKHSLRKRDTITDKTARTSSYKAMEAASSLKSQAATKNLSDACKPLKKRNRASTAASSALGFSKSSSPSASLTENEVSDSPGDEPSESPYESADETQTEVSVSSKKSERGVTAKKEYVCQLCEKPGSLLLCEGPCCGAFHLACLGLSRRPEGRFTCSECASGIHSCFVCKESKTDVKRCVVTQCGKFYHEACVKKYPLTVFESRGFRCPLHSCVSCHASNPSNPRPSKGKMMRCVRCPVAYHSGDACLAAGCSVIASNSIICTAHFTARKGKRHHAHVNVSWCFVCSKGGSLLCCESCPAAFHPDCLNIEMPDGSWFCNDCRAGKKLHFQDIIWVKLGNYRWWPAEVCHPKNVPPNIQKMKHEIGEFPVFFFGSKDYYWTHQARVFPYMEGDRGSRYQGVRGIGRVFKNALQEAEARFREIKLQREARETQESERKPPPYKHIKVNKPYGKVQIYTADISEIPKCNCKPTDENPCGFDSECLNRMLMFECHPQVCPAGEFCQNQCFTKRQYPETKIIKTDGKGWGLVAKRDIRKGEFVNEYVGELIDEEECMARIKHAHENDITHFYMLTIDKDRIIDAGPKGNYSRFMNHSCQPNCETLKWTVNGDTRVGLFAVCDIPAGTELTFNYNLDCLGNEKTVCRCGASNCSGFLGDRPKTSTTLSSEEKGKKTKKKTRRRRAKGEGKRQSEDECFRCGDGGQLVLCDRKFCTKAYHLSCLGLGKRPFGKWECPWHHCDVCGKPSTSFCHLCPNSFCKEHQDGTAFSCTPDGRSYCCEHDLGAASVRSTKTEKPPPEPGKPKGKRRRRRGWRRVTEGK

[6] = target: T3, Scavenger receptor class B member 1 (Mus musculus, UniProt Q61009); assay: mouse SR-BI DiI-HDL transfer blockers – ldlA[mSR-BI] CHO cells, fluorescence plate reader, dry powder, set 9, dose response (AID 623880); format: functional, cell-based
T3 sequence (Q61009 whole entry): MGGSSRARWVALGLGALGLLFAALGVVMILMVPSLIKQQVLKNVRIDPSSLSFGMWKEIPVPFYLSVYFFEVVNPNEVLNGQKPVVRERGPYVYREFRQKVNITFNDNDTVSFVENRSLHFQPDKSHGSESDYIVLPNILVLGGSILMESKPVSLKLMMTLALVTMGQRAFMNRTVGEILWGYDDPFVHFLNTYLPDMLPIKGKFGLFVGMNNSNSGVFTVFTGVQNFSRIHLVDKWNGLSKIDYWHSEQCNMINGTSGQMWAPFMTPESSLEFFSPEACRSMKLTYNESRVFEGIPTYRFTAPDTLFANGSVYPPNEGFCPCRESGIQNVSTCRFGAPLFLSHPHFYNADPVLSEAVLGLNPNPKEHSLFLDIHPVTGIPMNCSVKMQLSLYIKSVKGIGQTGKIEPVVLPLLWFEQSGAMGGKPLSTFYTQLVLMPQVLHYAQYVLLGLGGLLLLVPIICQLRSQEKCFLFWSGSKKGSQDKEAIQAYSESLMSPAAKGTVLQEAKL

[7] = target: T3, Scavenger receptor class B member 1; assay: blockers of DiI-HDL lipid transfer via SR-BI – cell-based, ldlA[mSR-BI] CHO, DiI fluorescence, dry powder, set 10, dose response (AID 624029); format: functional
Beta-lactamase [8] = target: T4, Beta-lactamase (Pseudomonas aeruginosa, UniProt Q79MP6)
T4 sequence (Q79MP6 whole entry): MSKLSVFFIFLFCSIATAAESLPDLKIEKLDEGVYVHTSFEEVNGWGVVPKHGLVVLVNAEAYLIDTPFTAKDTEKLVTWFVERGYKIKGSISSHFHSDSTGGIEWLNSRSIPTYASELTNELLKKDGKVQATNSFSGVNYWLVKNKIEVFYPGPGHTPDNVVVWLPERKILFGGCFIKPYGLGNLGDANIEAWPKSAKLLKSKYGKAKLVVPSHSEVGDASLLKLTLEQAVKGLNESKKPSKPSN

Beta-lactamase [9] = target: T5, Beta-lactamase (Salmonella choleraesuis (strain SC-B67), UniProt Q5J463)
T5 sequence (Q5J463 whole entry): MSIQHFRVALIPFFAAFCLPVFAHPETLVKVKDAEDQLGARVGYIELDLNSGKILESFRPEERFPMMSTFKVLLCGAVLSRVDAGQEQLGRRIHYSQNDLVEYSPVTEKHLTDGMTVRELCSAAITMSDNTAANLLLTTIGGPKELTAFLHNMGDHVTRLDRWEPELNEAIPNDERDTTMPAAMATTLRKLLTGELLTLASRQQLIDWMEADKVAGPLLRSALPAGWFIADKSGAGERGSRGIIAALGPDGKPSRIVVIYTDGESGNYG

[10] = target: T6, Beta-2 adrenergic receptor (Homo sapiens, UniProt P07550); assay: ADRB2 activation measured by internalization – cell-based, FAP fluorogen, flow cytometry, cherry pick 1, dose response (AID 588763); format: functional
T6 sequence (P07550 whole entry): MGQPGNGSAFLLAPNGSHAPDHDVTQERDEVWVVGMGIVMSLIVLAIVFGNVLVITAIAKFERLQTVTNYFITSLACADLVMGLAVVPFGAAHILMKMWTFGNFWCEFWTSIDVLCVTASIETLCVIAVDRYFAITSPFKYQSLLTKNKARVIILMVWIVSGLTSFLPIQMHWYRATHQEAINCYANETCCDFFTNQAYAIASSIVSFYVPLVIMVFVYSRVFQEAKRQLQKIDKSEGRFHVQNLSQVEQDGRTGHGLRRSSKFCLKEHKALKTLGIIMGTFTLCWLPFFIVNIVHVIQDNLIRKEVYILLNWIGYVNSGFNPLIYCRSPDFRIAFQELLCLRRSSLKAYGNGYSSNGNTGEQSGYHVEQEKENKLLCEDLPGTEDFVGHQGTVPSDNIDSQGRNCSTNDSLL

[11] = target: T6, Beta-2 adrenergic receptor; assay: Dose response for HTS for Beta-2AR agonists via FAP method from Powderset3.; format: functional
[12] = target: SWI/SNF-related matrix-associated actin-dependent regulator of chromatin subfamily A member 2 (Homo sapiens, UniProt P51531); assay: Luminescence-based cell-based high throughput dose response assay to identify activators of the function of SWI/SNF related, matrix associated, actin dependent regulator of chromatin, subfamily a, member 2 (SMARCA2, BRM).; format: functional
[13] = Counterscreen for activators of the function of SWI/SNF related, matrix associated, actin dependent regulator of chromatin, subfamily a, member 2 (SMARCA2, BRM): Luminescence-based cell-based high throughput dose response assay to identify non-selective compounds using the VP16 reporter assay.; format: functional
[14] = target: DNA (cytosine-5)-methyltransferase 1 (Homo sapiens, UniProt P26358); assay: inhibition of DNA methylation by DNMT1 – biochemical, fluorescent molecular beacon, confirmation (AID 602386); format: functional
[15] = target: T7, Small ubiquitin-related modifier 2 (Homo sapiens, UniProt P61956); assay: disruption of SUMO2 interaction with SIM peptide – biochemical, fluorescence polarization, uHTS hits, selectivity assay for SUMO1 interaction inhibitor project, dose response (AID 624385); format: functional; details: read-out: IC50_Mean
T7 sequence (P61956 whole entry): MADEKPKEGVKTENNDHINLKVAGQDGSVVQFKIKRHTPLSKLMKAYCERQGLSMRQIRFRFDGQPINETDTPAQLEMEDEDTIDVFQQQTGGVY

[16] = target: T8, Small ubiquitin-related modifier 1 (Homo sapiens, UniProt P63165); assay: SUMO1 protein interaction blockers, potency – biochemical, fluorescence polarization, uHTS hits, dose response (AID 624382); format: functional; details: read-out: IC50_Mean
T8 sequence (P63165 whole entry): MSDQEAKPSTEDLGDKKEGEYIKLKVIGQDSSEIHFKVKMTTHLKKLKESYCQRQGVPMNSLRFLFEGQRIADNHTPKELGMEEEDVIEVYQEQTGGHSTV

[17] = target: T7, Small ubiquitin-related modifier 2; assay: SUMO2 binding disruption by SUMO1 hits – biochemical, FRET, human SUMO2, uHTS hits, selectivity assay for SUMO1 interaction inhibitor project, dose response (AID 624384); format: functional; details: read-out: IC50_Mean
[18] = target: T8, Small ubiquitin-related modifier 1; assay: SUMO1 protein-protein binding blockers, potency – biochemical, FRET, dose response (AID 624383); format: functional; details: read-out: IC50_Mean
[19] = target: T9, High affinity choline transporter 1 (Homo sapiens, UniProt Q9GZV3); assay: choline transporter CHT inhibition potency – cell-based, 3H-choline uptake, radioactive, HEK293 CHT LV-AA, orthogonal assay for CHT inhibitor project, dose response (AID 651756); format: functional
T9 sequence (Q9GZV3 whole entry): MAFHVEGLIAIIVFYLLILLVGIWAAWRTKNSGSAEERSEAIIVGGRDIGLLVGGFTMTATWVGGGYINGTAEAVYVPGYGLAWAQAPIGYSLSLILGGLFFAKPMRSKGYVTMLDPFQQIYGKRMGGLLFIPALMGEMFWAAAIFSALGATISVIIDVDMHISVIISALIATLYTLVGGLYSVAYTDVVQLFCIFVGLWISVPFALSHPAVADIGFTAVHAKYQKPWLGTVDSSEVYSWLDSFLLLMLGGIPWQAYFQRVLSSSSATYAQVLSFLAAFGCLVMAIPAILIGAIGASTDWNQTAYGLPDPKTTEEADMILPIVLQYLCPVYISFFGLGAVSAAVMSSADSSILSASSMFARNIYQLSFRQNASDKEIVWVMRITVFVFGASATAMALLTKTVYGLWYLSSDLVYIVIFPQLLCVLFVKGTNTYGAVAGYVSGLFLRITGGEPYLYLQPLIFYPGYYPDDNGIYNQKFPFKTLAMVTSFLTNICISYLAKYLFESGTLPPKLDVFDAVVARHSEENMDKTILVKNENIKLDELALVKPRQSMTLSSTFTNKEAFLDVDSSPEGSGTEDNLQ

[20] = inhibition of ARNT PAS-B/TACC3 complex formation – biochemical, AlphaScreen, cherry-picked samples, confirmation (AID 651703); format: functional, Homo sapiens;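 also: His-tagged ARNT PAS-B domain paired with GST-TACC3 E629A dimer coactivator fragment; potency of inhibitors that break up the complex and lower AlphaScreen signal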
[21] = cytotoxicity in HEK293 background cells – cell-based, dry powder, set 2, counter-screen for EBV LMP1 inhibitor project, dose response (AID 624374); format: functional
[22] = target: ADP-ribosylation factor GTPase-activating protein 1 (Rattus norvegicus, UniProt Q62848); assay: Fluorescence polarization-based biochemical high throughput dose response screening assay to identify inhibitors of ADP-ribosylation factor GTPase activating protein 1 (ARFGAP1).; format: functional
ADP-ribosylation factor GTPase-activating protein 1, sequence (Q62848 whole entry, the tested form may be a part): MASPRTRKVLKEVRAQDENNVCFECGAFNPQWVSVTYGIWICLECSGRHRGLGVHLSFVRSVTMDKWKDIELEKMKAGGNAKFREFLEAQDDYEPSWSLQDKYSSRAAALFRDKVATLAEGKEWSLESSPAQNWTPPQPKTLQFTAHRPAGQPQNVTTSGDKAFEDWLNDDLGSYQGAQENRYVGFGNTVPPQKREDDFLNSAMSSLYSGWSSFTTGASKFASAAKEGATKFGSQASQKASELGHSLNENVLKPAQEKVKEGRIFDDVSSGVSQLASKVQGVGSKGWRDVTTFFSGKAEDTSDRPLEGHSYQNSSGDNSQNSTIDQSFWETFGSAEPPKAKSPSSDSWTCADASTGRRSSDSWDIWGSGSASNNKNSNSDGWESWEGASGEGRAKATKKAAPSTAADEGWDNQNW

[23] = target: Arf-GAP with SH3 domain, ANK repeat and PH domain-containing protein 1 (Homo sapiens, UniProt Q9ULH1); format: functional;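 also: biochemical fluorescence polarization dose–response screen measuring inhibition of ASAP1; ASAP1 GAP domain stimulating GTP hydrolysis by truncated human ARF1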
Beta-lactamase [24] = target: T5, Beta-lactamase; assay: Epi-absorbance-based counterscreen for selective VIM-2 inhibitors: dose response biochemical high throughput screening assay to identify inhibitors of TEM-1 serine-beta-lactamase.
Beta-lactamase [25] = target: T4, Beta-lactamase; assay: inhibition of IMP-1 beta-lactamase activity – biochemical, epi-absorbance, selectivity assay for VIM-2 inhibitor project, dose response (AID 1920)
Beta Lactamase [26] = target: T10, Beta Lactamase (Pseudomonas aeruginosa, UniProt Q932Y6); assay: concentration-dependent VIM-2 enzyme inhibition – biochemical, epi-absorbance readout, selective inhibitors, dose response (AID 1919)
T10 sequence (Q932Y6 whole entry): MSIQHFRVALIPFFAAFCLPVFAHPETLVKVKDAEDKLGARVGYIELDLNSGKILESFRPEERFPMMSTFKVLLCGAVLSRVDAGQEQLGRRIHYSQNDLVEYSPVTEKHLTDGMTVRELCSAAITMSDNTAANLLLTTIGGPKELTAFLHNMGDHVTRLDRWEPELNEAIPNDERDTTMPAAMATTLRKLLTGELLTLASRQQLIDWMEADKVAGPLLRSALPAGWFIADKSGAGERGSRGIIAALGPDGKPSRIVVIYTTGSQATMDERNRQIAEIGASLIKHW

Beta-lactamase [27] = target: T4, Beta-lactamase; assay: […] counterscreen for selective VIM-2 inhibitors: dose response biochemical high throughput screening assay to identify inhibitors of IMP-1 metallo-beta-lactamase.
Beta Lactamase [28] = target: T10, Beta Lactamase; assay: VIM-2 CCF2 hydrolysis inhibition, assay artifact filter – biochemical, FRET readout, CCF2 substrate, artefact control for selective VIM-2 inhibitor project, dose response (AID 1926)

Genome polyprotein, sequence (P29990 2492-3391 limits assumed): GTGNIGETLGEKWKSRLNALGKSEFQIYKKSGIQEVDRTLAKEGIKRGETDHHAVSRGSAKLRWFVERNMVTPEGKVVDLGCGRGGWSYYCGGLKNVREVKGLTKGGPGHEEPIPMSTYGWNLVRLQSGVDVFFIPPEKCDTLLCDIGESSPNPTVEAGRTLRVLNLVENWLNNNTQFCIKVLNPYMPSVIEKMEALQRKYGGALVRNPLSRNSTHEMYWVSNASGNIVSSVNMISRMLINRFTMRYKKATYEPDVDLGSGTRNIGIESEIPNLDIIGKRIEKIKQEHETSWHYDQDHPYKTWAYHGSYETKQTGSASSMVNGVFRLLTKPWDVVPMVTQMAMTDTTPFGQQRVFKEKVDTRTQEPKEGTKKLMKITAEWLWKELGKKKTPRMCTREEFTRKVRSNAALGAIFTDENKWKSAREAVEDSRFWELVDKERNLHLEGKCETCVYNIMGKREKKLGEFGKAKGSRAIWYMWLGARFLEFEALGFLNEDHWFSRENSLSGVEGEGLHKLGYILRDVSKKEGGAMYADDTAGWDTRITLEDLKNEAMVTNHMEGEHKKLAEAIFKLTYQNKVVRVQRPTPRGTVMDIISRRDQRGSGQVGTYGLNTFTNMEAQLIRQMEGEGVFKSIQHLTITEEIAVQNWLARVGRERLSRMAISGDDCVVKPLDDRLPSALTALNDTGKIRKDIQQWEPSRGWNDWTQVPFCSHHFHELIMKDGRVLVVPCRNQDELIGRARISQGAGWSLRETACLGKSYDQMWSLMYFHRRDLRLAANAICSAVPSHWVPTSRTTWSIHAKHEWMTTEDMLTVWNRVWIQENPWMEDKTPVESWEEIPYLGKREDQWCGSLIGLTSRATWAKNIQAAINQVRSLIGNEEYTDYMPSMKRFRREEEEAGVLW

CC(C(=O)Nc1ccc(O)cc1C(=O)O)N1C(=O)/C(=C\c2cccs2)SC1=S (stereo not given)
IC50 (Genome polyprotein): 47.9 µM (active)
IC50 [1]: 1.5 µM (active)
IC50 [2]: 20.5 µM (inactive)
IC50 [3]: 5.64 µM (active)
AC50 [4]: 49.3 µM (active)
AC50 [5]: > 20 µM (inactive)

CC(C)CN(C(=O)COC(=O)C12CC3CC(CC(O)(C3)C1)C2)C1CCS(=O)(=O)C1 (stereo not given)
AC50 [6]: 0.209 µM (active)
AC50 [7]: 0.252 µM (active)

COc1ccc(-c2cc(=O)oc3c(C)c(OCC(=O)NCCCn4ccnc4)ccc23)cc1
IC50 (Beta-lactamase [8]): > 59.6 µM (inactive)
IC50 (Beta-lactamase [9]): > 59.6 µM (inactive)

COc1ccc(OC)c(CCNC(=O)C2CCN(c3nnc(-n4cccc4)s3)CC2)c1
EC50 [10]: 2.85 µM (active)
EC50 [11]: 1.51 µM (active)

N#Cc1c(NCCN)nc(-c2ccco2)c2c1CCCC2
EC50 [12]: 10.8 µM (inactive)
EC50 [13]: > 91.2 µM (inactive)

CN(c1ccccc1)c1ccc(/C=C(/CCC(=O)O)c2nc3ccccc3s2)cc1[N+](=O)[O-]
IC50 (Genome polyprotein): 48.5 µM (active)
IC50 [14]: 9.98 µM (active)
IC50 [15]: 6.2 µM (active)
IC50 [16]: 11.1 µM (active)
IC50 [17]: > 66 µM (inactive)
IC50 [18]: 51.8 µM (inactive)

O=C(Nc1ccc(S(=O)(=O)Nc2ccccn2)cc1)c1ccc([N+](=O)[O-])cc1Cl
IC50 [19]: 3.85 µM (active)

C[C@H]1CN([C@@H](C)CO)C(=O)c2cc(NC(=O)Nc3cccc4ccccc34)ccc2O[C@@H]1CN(C)C(=O)Nc1ccc(C(F)(F)F)cc1
AC50 [20]: 108 µM (active)

COc1ccccc1C(=O)Nc1ccc2c(c1)C(=O)N(C)[C@@H]1CC[C@H](CC(=O)NCCc3ccncc3)O[C@H]1CO2
AbsAC35 [21]: 153.61 µM

CCCCOc1cccc2c(=O)n(CC(=O)Nc3ccc4c(c3)OCCO4)ccc12
IC50 [22]: 36.8 µM (inactive)
IC50 [23]: 18.3 µM (inactive)

CCc1nnc(S)n1/N=C/c1ccc(NC(C)=O)cc1
IC50 (Beta-lactamase [24]): > 59.6 µM (inactive)
IC50 (Beta-lactamase [25]): > 59.6 µM (inactive)
IC50 (Beta Lactamase [26]): 6.32 µM (active)
IC50 (Beta-lactamase [27]): > 59.6 µM (inactive)
IC50 (Beta Lactamase [28]): 2.08 µM (active)

From ChEMBL document CHEMBL1201862, “PubChem BioAssay data set” (2004)
